Marks after values point to notes of the source that are not given here.
Test: Measurement of logP values by HPLC on reversed phase columns (EEC directive 79/831 Annex V.A8)
Type: physicochemical
Conditions: pH 2.7

SMILES | logP | chromatographic logP
CCCN(C)C(=O)c1cc(-c2ncnc(Nc3ccc(Cl)c(C(F)F)c3)n2)ccn1 [Example B387] | 3.23 | –
CC(C)CN(C)C(=O)c1cc(-c2ncnc(Nc3ccc(Cl)c(C(F)F)c3)n2)ccn1 [Example B388] | 3.58 | –
CN(CCC#N)C(=O)c1cc(-c2ncnc(Nc3ccc(Cl)c(C(F)F)c3)n2)ccn1 [Example B389] | 2.69 | –
CN(CC1CC1)C(=O)c1cc(-c2ncnc(Nc3ccc(Cl)c(C(F)F)c3)n2)ccn1 [Example B390] | 3.31 | –
CC(C)N(C)C(=O)c1cc(-c2ncnc(Nc3ccc(Cl)c(C(F)F)c3)n2)ccn1 [Example B391] | 3.15 | –
CN(CC(F)F)C(=O)c1cc(-c2ncnc(Nc3ccc(Cl)c(C(F)F)c3)n2)ccn1 [Example B392] | 3.19 | –
CN(C)C(=O)c1cc(-c2ncnc(Nc3ccc(F)c(C(F)F)c3)n2)ccn1 [Example B393] | 2.25 | –
CCN(C)C(=O)c1cc(-c2ncnc(Nc3ccc(F)c(C(F)F)c3)n2)ccn1 [Example B394] | 2.55 | –
CC(C)CN(C)C(=O)c1cc(-c2ncnc(Nc3ccc(F)c(C(F)F)c3)n2)ccn1 [Example B395] | 3.15 | –
CC(C)N(C)C(=O)c1cc(-c2ncnc(Nc3ccc(F)c(C(F)F)c3)n2)ccn1 [Example B396] | 2.78 | –
CN(CCC#N)C(=O)c1cc(-c2ncnc(Nc3ccc(F)c(C(F)F)c3)n2)ccn1 [Example B397] | 2.37 | –
CN(CC(F)F)C(=O)c1cc(-c2ncnc(Nc3ccc(F)c(C(F)F)c3)n2)ccn1 [Example B398] | 2.84 | –
CCCN(C)C(=O)c1cc(-c2ncnc(Nc3ccc(F)c(C(F)F)c3)n2)ccn1 [Example B399] | 2.86 | –
CCN(C)C(=O)c1cc(-c2ncnc(Nc3cccc(C(F)F)c3)n2)ccn1 [Example B400] | 2.44 | –
COCC(=O)N(c1ccccc1)c1ncnc(-c2ccnc(C(=O)N(C)CC3CC3)c2)n1 [Example B401] | 2.37 | –
C#CCN(c1ccccc1)c1ncnc(-c2ccnc(C(=O)N(C)CC3CC3)c2)n1 [Example B402, N-(cyclopropylmethyl)-N-methyl-4-{4-[phenyl(prop-2-yn-1-yl)amino]-1,3,5-triazin-2-yl}pyridine-2-carboxamide] | – | 2.98
COc1ccc(Nc2ncnc(-c3ccnc(C(=O)N(C)CC4CC4)c3)n2)cn1 [Example C6] | 2.2 | –
COc1ccc(Nc2ncnc(-c3ccnc(C(=O)N(C)C)c3)n2)cn1 [Example C8] | 1.57 | –
COc1ccc(Nc2ncnc(-c3ccnc(C(=O)N(C)CC(C)C)c3)n2)cn1 [Example C9] | 2.37 | –
CCN(C)C(=O)c1cc(-c2ncnc(Nc3ccc(OC)nc3)n2)ccn1 [Example C10] | 1.82 | –

SMILES | logP | chromatographic logP
CCCCN(CC)C(=O)c1cc(-c2ncnc(Nc3ccc(OC)nc3)n2)ccn1 [Example C11] | 2.78 | –
CN(CCC#N)C(=O)c1cc(-c2ncnc(Nc3ccsc3)n2)ccn1 [Example C12] | 1.89 | –
CCN(CC)C(=O)c1cc(-c2ncnc(Nc3ccsc3)n2)ccn1 [Example C13] | 2.44 | –
CCCN(C)C(=O)c1cc(-c2ncnc(Nc3ccsc3)n2)ccn1 [Example C14] | 2.45 | –
CN(CC1CC1)C(=O)c1cc(-c2ncnc(Nc3ccsc3)n2)ccn1 [Example C15] | 2.53 | –
CC(C)CN(C)C(=O)c1cc(-c2ncnc(Nc3ccsc3)n2)ccn1 [Example C16] | 2.63 | –
CCN(C)C(=O)c1cc(-c2ncnc(Nc3ccsc3)n2)ccn1 [Example C17] | 2.13 | –
CC(C)CN(C)C(=O)c1cc(-c2ncnc(Nc3ccncc3)n2)ccn1 [Example C18] | 1.19 | –
CN(C)C(=O)c1cc(-c2ncnc(Nc3ccsc3)n2)ccn1 [Example C19] | 1.86 | –
CC(C)N(C)C(=O)c1cc(-c2ncnc(Nc3ccsc3)n2)ccn1 [Example C20] | 2.37 | –
CN(CC(F)F)C(=O)c1cc(-c2ncnc(Nc3ccsc3)n2)ccn1 [Example C21] | 2.46 | –
CCN(CC)C(=S)c1cc(-c2ncnc(Nc3ccsc3)n2)ccn1 [Example C22] | 3.02 | –
CCN(C)C(=S)c1cc(-c2ncnc(Nc3ccsc3)n2)ccn1 [Example C23] | 2.68 | –
COC(=O)c1cc(-c2ncnc(Nc3ccsc3)n2)ccn1 [Example C24, methyl 4-[4-(3-thienylamino)-1,3,5-triazin-2-yl]pyridine-2-carboxylate] | – | 2.23
COC(=O)c1cc(-c2ncnc(Nc3ccnc(Cl)c3)n2)ccn1 [Example C25] | 2.02 | –
O=C(O)c1cc(-c2ncnc(Nc3ccsc3)n2)ccn1 [Example C28, 4-[4-(3-thienylamino)-1,3,5-triazin-2-yl]pyridine-2-carboxylic acid] | – | 1.62
CC(=O)N(c1ccsc1)c1ncnc(-c2ccnc(C(=O)N(C)CCC#N)c2)n1 [Example C29] | 1.78 | –
CON(C)C(=O)c1cc(-c2ncnc(Nc3ccsc3)n2)ccn1 [Example C30, N-methoxy-N-methyl-4-[4-(3-thienylamino)-1,3,5-triazin-2-yl]pyridine-2-carboxamide] | – | 2.05
CCON(CC)C(=O)c1cc(-c2ncnc(Nc3ccsc3)n2)ccn1 [Example C31] | 2.59 | –
CCON(C)C(=O)c1cc(-c2ncnc(Nc3ccsc3)n2)ccn1 [Example C33] | 2.26 | –

Same assay, conditions: pH 7.8

SMILES | logP | chromatographic logP
COc1ccc(Nc2ncnc(-c3ccnc(C(=O)N4CCCC4)c3)n2)cn1 [Example C1] | 1.99^[c] | –
COc1ccc(Nc2ncnc(-c3ccnc(C(=O)N4CCCCC4)c3)n2)cn1 [Example C2, (4-{4-[(6-methoxypyridin-3-yl)amino]-1,3,5-triazin-2-yl}pyridin-2-yl)(piperidin-1-yl)methanone] | – | 2.14
CCCN(CCC)C(=O)c1cc(-c2ncnc(Nc3ccc(OC)nc3)n2)ccn1 [Example C3] | 2.77^[c] | –
CCN(CC)C(=O)c1cc(-c2ncnc(Nc3ccc(OC)nc3)n2)ccn1 [Example C4] | 2.11^[c] | –
CCCN(C)C(=O)c1cc(-c2ncnc(Nc3ccc(OC)nc3)n2)ccn1 [Example C5] | 2.11^[c] | –
C=CCN(CC=C)C(=O)c1cc(-c2ncnc(Nc3ccc(OC)nc3)n2)ccn1 [Example C7] | 2.58^[c] | –
CCN(OC)C(=O)c1cc(-c2ncnc(Nc3ccsc3)n2)ccn1 [Example C32] | 2.33^[c] | –
